Measured values published in US20100035848A1, “THERAPY FOR DISORDERS OF THE PROXIMAL DIGESTIVE TRACT” (priority 2008, published 2010).
Where “and” joins values, the source holds several entries; their conditions need not be identical. Equal entries are not always repeated.

Columns and labels:
[1] = tested on: diclofenac-induced gastric damage; assay: Acute diclofenac-induced gastric toxicity in rats: gastric damage score; format: in vivo, rat; conditions: Group C: GL1001 90 mg/kg oral gavage 30 min before diclofenac 50 mg/kg oral, 3 h; vehicle-diclofenac Group B 17.80 ± 5.08; p<0.02
Description: (§1) Male Wistar rats were deprived of food but not water for 16 hours prior to oral administration of GL1001 90 mg/kg, incubated for 30 minutes and then given oral diclofenac 50 mg/kg. Each group consisted of 6 rats. As a negative control, one group received vehicle pretreatment, and then received vehicle instead of diclofenac. A positive control group received PGE2 100 μg/kg orally, 30 minutes prior to administration of diclofenac. All treatments were administered by oral gavage.
(§2) Three hours after diclofenac treatment, all animals were sacrificed and stomachs were removed and imaged to determine the severity of gastric damage. Additionally, stomach tissue samples were taken to assess disease activity and pharmacodynamic effects. Gastric damage scores were determined from photographic images (Ma & Wallace (2003) Am. J. Physiol. Gastrointest. Liver Physiol. 279; 341-346). Removed stomachs were opened along the greater curvature, pinned out on a wax block, and photographed along a 25 mm ruler reference with a digital 35 mm camera. The lesion area was then determined using enlarged images and computer software (www.scioncorp.co/pages/scion_image_windows.htm) that allows superimposed drawing of the perimeter of a wound and calculation of the area based on the ruler reference. Stomach samples (excluding forestomach) were used for measurements of PGE2 concentration, MPO activity and ACE2 activity. PRE2 determinations are used in this study as a hiomarker of diclofenac effect since its mechanism of action involves inhibition of cyclooxygenase (COX-2 and COX-1) enzymes which in turn results in inhibition of PGE2 synthesis. Concentration of PGE2 from stomach tissue samples was performed as described by Souza et al. (2003), supra, and quantification was obtained by LC-MS. MTO, an enzyme found in abundance in granulocytes, is used as a biochemical marker of tissue inflammation. When tissues undergo inflammatory processes, granulocytes are recruited to the site of inflammation and infiltrate the affected tissue giving rise to increase MPO activity (Souza et al. (2003), supra). Last, the extent of inhibition of ACE2 activity was determined to establish whether GL1001 was effective in inhibiting its ACE2 target in stomach tissues. The ACE2 activity assay is similar to the method of Vickers et al. (2002) J. Biol. Chem. 277:14838-14843, wherein purified recombinant ACE2 (100 pM) and a quenched fluorescent substrate (100-150 μM APK (7-methoxycoumarin-4-yl)acetyl-Ala-Pro-Lys (2,4-dinitrophenyl)) are used in end-point fluorescence reactions (excitation 320 nm, emission 405 nm). For stomach ACE2 measurements, tissues were homogenized in the presence of a general protease inhibitor (PMSF) and specific ACE inhibitors. […]
(§3) Data are expressed as means with standard errors. […]

ACE2 = target: T1, ACE2 (Rattus norvegicus, UniProt Q5EGZ1); assay: Acute diclofenac-induced gastric toxicity in rats: ACE2 activity in stomach tissue; format: in vivo; conditions: Group C: GL1001 oral before diclofenac 50 mg/kg; vehicle-diclofenac Group B 880 ± 39; p<0.0001
T1 construct: from tissue; host or cells: rat stomach (excluding forestomach) homogenate
Description: as §1
as §2, with “PRE2 determinations are used in this study as a hiomarker of diclofenac effect since its mechanism of action involves inhibition of cyclooxygenase (COX-2 and COX-1) enzymes which in turn results in inhibition of PGE2 synthesis.” left out, “MTO, an enzyme found in abundance in granulocytes, is used as a biochemical marker of tissue inflammation. When tissues undergo inflammatory processes, granulocytes are recruited to the site of inflammation and infiltrate the affected tissue giving rise to increase MPO activity (Souza et al. (2003), supra).” left out, “nm).” for “nm). For stomach ACE2 measurements, tissues were homogenized in the presence of a general protease inhibitor (PMSF) and specific ACE inhibitors.”
as §3

[2] = tested on: LPS-induced NF-κB dependent transcription; assay: In vivo imaging of LPS-induced NF-κB dependent transcription in NF-κB::Luc mice; parameters: species or system mouse
Text: More particularly, transgenic NF-κB::Luc mice were generated using three NF-κB response elements from the Igκ light chain promoter fused to a firefly luciferase gene as described by Carlsen et al. (2002) J. Immunol. 168:1441-1446. Pronuclear microinjection of purified construct DNA was used to generate transgenic founders in the C57BL/6 XCBA/J background. Founders were subsequently back-crossed to the C57BL/6 albino background. All experimental protocols were approved by the Institutional Animal Care and Use Committee and conform to the ILAR guide for the care and used of laboratory animals. For in vivo imaging, NF-κB::Luc mice were injected intraperitoneally with luciferin (150 mg/1 kg) 10 minutes before imaging, anesthetized (using 1-3% isoflurane) and placed into a light-tight camera box. […] Signal data were also quantitated and archived using the Living Image® software. Photons of light were quantitated using an oval region of interest (ROI) of varying sizes depending on the procedure, as described further below.
GL1001 was further tested for in vivo anti-inflammatory activity by examining its effects on bacterial LPS-induced NF-κB dependent transcription in NF-κB::Luc mice. […] Mice were subjected to quantitative abdominal imaging at 2, 4 and 6 hours following LPS administration, as described above. […] Luciferase signal was quantitated from several regions of interest. […]

gastric PGE2 = assay: Acute diclofenac-induced gastric toxicity in rats: gastric PGE2 concentration; format: in vivo, rat; conditions: Group C: GL1001 oral before diclofenac 50 mg/kg; vehicle/vehicle Group A 43.22 ± 12.13
Description: as §1
as §2, with “PRE2 determinations are used in this study as a hiomarker of diclofenac effect since its mechanism of action involves inhibition of cyclooxygenase (COX-2 and COX-1) enzymes which in turn results in inhibition of PGE2 synthesis.” left out, “MTO, an enzyme found in abundance in granulocytes, is used as a biochemical marker of tissue inflammation. When tissues undergo inflammatory processes, granulocytes are recruited to the site of inflammation and infiltrate the affected tissue giving rise to increase MPO activity (Souza et al. (2003), supra).” left out, “nm).” for “nm). For stomach ACE2 measurements, tissues were homogenized in the presence of a general protease inhibitor (PMSF) and specific ACE inhibitors.”
as §3

[3] = tested on: activator protein-1 (AP-1); assay: In vivo basal reporter luciferase expression in AP-1::Luc mice; parameters: species or system mouse; conditions: data not shown
[4] = tested on: NF-κB dependent transcription; assay: In vivo imaging of basal NF-κB dependent transcription in NF-κB::Luc reporter mice; parameters: species or system mouse; conditions: male NF-κB::Luc mice, 4 hours, FIG. 2
Description: GL1001 was tested for in vivo anti-inflammatory activity by examining its effects on basal levels of NF-κB dependent transcription in mice engineered in the germline with a construct containing an NF-κB enhancer linked to a luciferase gene (i.e., NF-κB::Luc mice), such that this NE-κB reporter construct is present in all cells of the mice.
More particularly, transgenic NF-κB::Luc mice were generated using three NF-κB response elements from the Igκ light chain promoter fused to a firefly luciferase gene as described by Carlsen et al. (2002) J. Immunol. 168:1441-1446. Pronuclear microinjection of purified construct DNA was used to generate transgenic founders in the C57BL/6 XCBA/J background. Founders were subsequently back-crossed to the C57BL/6 albino background. […] Signal data were also quantitated and archived using the Living Image® software. Photons of light were quantitated using an oval region of interest (ROI) of varying sizes depending on the procedure, as described further below.
To test for in vivo effects of GL1001 on basal levels of NF-κB dependent transcription, male NF-κB::Luc mice were subjected to quantitative in vivo imaging of the abdominal area (using a fixed ROT of 2.76×3.7 cm) as described above, immediately before, and at 2, […]

T1 sequence (Q5EGZ1 18-805): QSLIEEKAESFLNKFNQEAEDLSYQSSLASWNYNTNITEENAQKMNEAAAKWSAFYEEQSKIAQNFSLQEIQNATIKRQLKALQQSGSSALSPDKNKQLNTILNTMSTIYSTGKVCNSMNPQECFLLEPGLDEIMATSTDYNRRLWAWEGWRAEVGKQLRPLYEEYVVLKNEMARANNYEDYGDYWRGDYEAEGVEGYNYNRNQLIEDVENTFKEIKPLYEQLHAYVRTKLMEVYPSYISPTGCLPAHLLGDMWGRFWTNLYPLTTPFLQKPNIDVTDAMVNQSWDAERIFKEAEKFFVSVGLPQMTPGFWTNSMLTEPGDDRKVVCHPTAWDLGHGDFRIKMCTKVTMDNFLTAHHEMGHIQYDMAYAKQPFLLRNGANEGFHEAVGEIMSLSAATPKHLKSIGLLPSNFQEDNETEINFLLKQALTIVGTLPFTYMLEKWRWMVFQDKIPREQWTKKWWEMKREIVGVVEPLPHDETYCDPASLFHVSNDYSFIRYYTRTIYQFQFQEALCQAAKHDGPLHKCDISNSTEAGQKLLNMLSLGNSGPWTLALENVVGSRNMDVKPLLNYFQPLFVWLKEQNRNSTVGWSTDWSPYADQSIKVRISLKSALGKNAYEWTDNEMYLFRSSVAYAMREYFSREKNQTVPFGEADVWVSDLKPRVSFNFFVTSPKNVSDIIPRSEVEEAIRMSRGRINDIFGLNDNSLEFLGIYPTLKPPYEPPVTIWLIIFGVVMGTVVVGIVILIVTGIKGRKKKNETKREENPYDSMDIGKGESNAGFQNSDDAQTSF

Q: What does the source list for `CC(C)C[C@H](N[C@@H](Cc1cncn1Cc1cc(Cl)cc(Cl)c1)C(=O)O)C(=O)O` [GL1001, (S,S)-2-[1-carboxy-2-[3-(3,5-dichlorobenzyl)-3H-imidazol-4-yl]-ethylamino]-4-methylpentanoic acid]?
A: Gastric damage score [1]: 2.6 and 2.63 ± 0.87; Gastric ACE2 activity (ACE2): 436 pmol/mg and 436 ± 20 pmol/mg; LPS induced NF-κB signaling response, abdominal region ([2]; GL1001 30, 100 and 300 mg/kg s.c. 1 hour before LPS i.v., FIG. 3): significantly reduced; LPS-induced NF-κB signaling, abdominal region ([2]; repeat with dose range 3-100 mg/kg s.c., effect at 30 and 100 mg/kg, FIG. 4): significantly reduced; Gastric PGE2 concentration (gastric PGE2): 0 pg/mg; effect on basal in vivo levels of reporter luciferase expression [3]: no significant effect; inhibition of basal in vivo levels of NF-κB dependent transcription in abdominal ROI ([4]; 300 mg/kg s.c., p<0.01): over 40%; inhibition of basal in vivo levels of NF-κB dependent transcription in abdominal ROI ([4]; both lower doses s.c.): lesser but still significant extents
